Experimental data: ChEMBL document CHEMBL1128469, “Synthesis and biochemical evaluation of adenosylspermidine, a nucleoside-polyamine adduct inhibitor of spermidine synthase” (J Med Chem, 1995); call rule not given here

How the values were obtained:
Spermidine synthase = biological target: T1, Spermidine synthase (Rattus norvegicus, UniProt Q99MI5); test: Inhibition of Putrescine aminopropyltransferase (PAPT) in rat liver.
T1 sequence (Q99MI5 whole entry): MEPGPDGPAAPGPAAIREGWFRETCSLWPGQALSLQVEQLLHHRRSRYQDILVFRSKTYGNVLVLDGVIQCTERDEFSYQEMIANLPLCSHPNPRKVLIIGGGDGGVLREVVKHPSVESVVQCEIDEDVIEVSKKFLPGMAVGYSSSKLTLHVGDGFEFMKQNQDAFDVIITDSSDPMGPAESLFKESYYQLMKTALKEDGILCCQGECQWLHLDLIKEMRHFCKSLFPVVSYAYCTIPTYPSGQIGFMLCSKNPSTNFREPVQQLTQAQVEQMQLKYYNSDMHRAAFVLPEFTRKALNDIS

[1] = biological target: Spermine synthase (Rattus norvegicus); test: Inhibition of Spermidine aminopropyltransferase (SAPT) in rat liver.
Ornithine decarboxylase = biological target: T2, Ornithine decarboxylase (Rattus norvegicus, UniProt P09057); test: Inhibition of Ornithine decarboxylase in rat liver; Not inhibited
T2 sequence (P09057 whole entry): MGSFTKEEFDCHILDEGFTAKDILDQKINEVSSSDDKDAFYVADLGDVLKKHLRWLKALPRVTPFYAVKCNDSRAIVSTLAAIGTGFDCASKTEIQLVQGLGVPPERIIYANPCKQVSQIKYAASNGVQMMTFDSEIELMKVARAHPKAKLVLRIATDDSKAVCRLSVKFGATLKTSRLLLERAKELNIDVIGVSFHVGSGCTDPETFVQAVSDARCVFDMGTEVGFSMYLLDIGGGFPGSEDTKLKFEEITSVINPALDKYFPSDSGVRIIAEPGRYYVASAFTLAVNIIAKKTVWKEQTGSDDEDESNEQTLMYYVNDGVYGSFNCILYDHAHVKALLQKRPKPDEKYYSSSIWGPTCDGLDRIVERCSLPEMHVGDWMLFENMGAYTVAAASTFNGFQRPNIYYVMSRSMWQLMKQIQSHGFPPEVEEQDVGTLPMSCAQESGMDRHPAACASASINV

[2] = biological target: T3, S-adenosylmethionine decarboxylase proenzyme (Homo sapiens, UniProt P17707); test: Inhibitory activity against S-adenosyl-L-methionine decarboxylase was determined; NI means No inhibition
T3 sequence (P17707 whole entry): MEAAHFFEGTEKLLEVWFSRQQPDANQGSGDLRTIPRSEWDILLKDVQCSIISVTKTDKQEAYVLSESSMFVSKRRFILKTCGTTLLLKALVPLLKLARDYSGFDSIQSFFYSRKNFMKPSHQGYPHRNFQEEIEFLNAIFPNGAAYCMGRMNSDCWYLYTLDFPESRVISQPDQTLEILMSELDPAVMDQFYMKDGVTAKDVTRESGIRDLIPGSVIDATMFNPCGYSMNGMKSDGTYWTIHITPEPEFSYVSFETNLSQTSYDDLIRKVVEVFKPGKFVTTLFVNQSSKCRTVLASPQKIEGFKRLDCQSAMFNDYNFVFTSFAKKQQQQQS

| SMILES | IC50 (Spermidine synthase) [nM] | IC50 [1] [nM] | IC50 (Ornithine decarboxylase) | IC50 [2] |
| --- | --- | --- | --- | --- |
| NCCCNCCCCCC(CCN)SC[C@H]1OC(n2cnc3c(N)ncnc32)[C@H](O)[C@@H]1O (some centres undefined) | > 10000 | 50 |  |  |
| NCCCCNC(CCN)CC[C@H]1OC(n2cnc3c(N)ncnc32)[C@H](O)[C@@H]1O (some centres undefined) |  |  | No inhibition | Not Active |
